Measurements from US9656971B2, “COMT inhibitors” (Hoffmann-La Roche Inc., priority 2012, dated 2017).

Target: T1, Rec. human COMT (Homo sapiens, UniProt P21964)
T1 sequence (P21964 1-271): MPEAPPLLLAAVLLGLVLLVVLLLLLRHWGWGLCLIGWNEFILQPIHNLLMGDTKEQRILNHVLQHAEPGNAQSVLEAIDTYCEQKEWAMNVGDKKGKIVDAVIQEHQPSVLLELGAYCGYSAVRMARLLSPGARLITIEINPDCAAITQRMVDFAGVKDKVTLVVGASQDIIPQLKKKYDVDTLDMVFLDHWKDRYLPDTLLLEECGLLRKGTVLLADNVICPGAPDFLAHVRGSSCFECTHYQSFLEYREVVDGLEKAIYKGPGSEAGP
Test: COMT-Fluorescence Assay
Assay type: biochemical
Conditions: COMT-fluorescence assay, rec. human COMT 25 nM, 4-Nitrocatechol-Alexa488 200 nM, SAM 500 nM; read-out: IC50
Method: This intramolecular interaction is disturbed if the 4-Nitrocatechol is methylated. […] This increase of fluorescence intensity can be followed in a kinetic measurement. The slope in the linear range of the kinetic is calculated. An inhibitor compound decreases the slope.
Signal [rfu/min]=(rfu(end-point)−rfu(startpoint))/incubation_time_#2

IC50 | SMILES
1400 nM | CC(C)N(Cc1ccccc1-c1cc(O)c2nc[nH]c(=O)c2c1)C(C)C [Example 218, 6-(2-((Diisopropylamino)methyl)phenyl)-8-hydroxyquinazolin-4(3H)-one]
10 nM | CS(=O)(=O)c1cccc(-c2c(-c3ccc(F)cc3)cc(O)c3nc[nH]c(=O)c23)c1 [Example 52, 6-(4-Fluorophenyl)-8-hydroxy-5-(3-(methylsulfonyl)phenyl)quinazolin-4(3H)-one]
1270 nM | Cc1cn(C)c(-c2cc(O)c3nc[nH]c(=O)c3c2)n1 [Example 188, 6-(1,4-Dimethyl-1H-imidazol-2-yl)-8-hydroxyquinazolin-4(3H)-one]
120 nM | COC(=O)c1nn(C)cc1-c1cc(O)c2nc[nH]c(=O)c2c1 [Example 88, Methyl 4-(8-hydroxy-4-oxo-3,4-dihydroquinazolin-6-yl)-1-methyl-1H-pyrazole-3-carboxylate]
20 nM | O=C(c1cccc(-c2cc(O)c3nc[nH]c(=O)c3c2)c1)N1CCC(F)(F)CC1 [Example 199, 6-[3-(4,4-Difluoro-piperidine-1-carbonyl)-phenyl]-8-hydroxy-3H-quinazolin-4-one]
1030 nM | O=c1[nH]cnc2c(O)ccc(C(F)(F)F)c12 [Example 42, 8-Hydroxy-5-(trifluoromethyl)quinazolin-4(3H)-one]
20 nM | O=c1[nH]cnc2c(O)cc(-c3ccc(F)cc3)c(-c3ccccc3)c12 [Example 49, 6-(4-Fluorophenyl)-8-hydroxy-5-phenylquinazolin-4(3H)-one]
170 nM | O=C(NCC(F)(F)C(F)(F)F)c1cc(O)c2nc[nH]c(=O)c2c1 [Example 4, 8-Hydroxy-4-oxo-N-(2,2,3,3,3-pentafluoropropyl)-3,4-dihydroquinazoline-6-carboxamide]
200 nM | O=c1[nH]cnc2c(O)c(F)cc(-c3ccc(F)cc3)c12 [Example 124, 7-Fluoro-5-(4-fluorophenyl)-8-hydroxyquinazolin-4(3H)-one]
90 nM | O=c1[nH]cnc2c(O)cc(/C=C/c3ccccc3)cc12 [Example 20, (E)-8-Hydroxy-6-styrylquinazolin-4(3H)-one]
500 nM | O=c1[nH]cnc2c(O)ccc(Br)c12 [Example 1, 5-Bromo-8-hydroxyquinazolin-4(3H)-one]
370 nM | CN(C)c1ccccc1-c1cc(O)c2nc[nH]c(=O)c2c1 [Example 209, 6-(2-(Dimethylamino)phenyl)-8-hydroxyquinazolin-4(3H)-one]
100 nM | O=c1[nH]cnc2c(O)cc(-c3ccccc3CCCCN3CCCC3)cc12 [Example 248, 8-Hydroxy-6-(2-(4-(pyrrolidin-1-yl)butyl)phenyl)quinazolin-4(3H)-one]
40 nM | O=c1[nH]cnc2c(O)cc(-c3ccc4ccccc4c3)cc12 [Example 169, 8-Hydroxy-6-(naphthalen-2-yl)quinazolin-4(3H)-one]
80 nM | COc1ncc(-c2cc(O)c3nc[nH]c(=O)c3c2)c(OC)n1 [Example 160, 6-(2,4-Dimethoxypyrimidin-5-yl)-8-hydroxyquinazolin-4(3H)-one]
10 nM | O=c1[nH]cnc2c(O)cc(-c3ccc(F)cc3)c(Cl)c12 [Example 101, 5-Chloro-6-(4-fluorophenyl)-8-hydroxyquinazolin-4(3H)-one]
10 nM | COCc1nc(NC(=O)C(C)(C)C)ccc1-c1cc(O)c2nc[nH]c(=O)c2c1 [Example 104, N-(5-(8-Hydroxy-4-oxo-3,4-dihydroquinazolin-6-yl)-6-(methoxymethyl)pyridin-2-yl)pivalamide]
20 nM | Cn1nccc1-c1cc(O)c2nc[nH]c(=O)c2c1 [Example 181, 8-Hydroxy-6-(1-methyl-1H-pyrazol-5-yl)quinazolin-4(3H)-one]
20 nM | O=c1[nH]cnc2c(O)cc(-c3ccccc3COCCN3CCOCC3)cc12 [Example 236, 8-Hydroxy-6-[2-(2-morpholin-4-yl-ethoxymethyl)-phenyl]-3H-quinazolin-4-one]
30 nM | CN1CCN(C(=O)c2cccc(-c3cc(O)c4nc[nH]c(=O)c4c3)c2)CC1 [Example 191, 8-Hydroxy-6-[3-(4-methyl-piperazine-1-carbonyl)-phenyl]-3H-quinazolin-4-one]

IC50 | SMILES
10 nM | Cc1cc(C(=O)N2CCN(C)CC2)sc1-c1cc(O)c2nc[nH]c(=O)c2c1 [Example 103, 8-Hydroxy-6-[3-methyl-5-(4-methyl-piperazine-1-carbonyl)-thiophen-2-yl]-3H-quinazolin-4-one]
1250 nM | O=c1[nH]cnc2c(O)cc(Cc3ccccc3F)cc12 [Example 11, 6-(2-Fluorobenzyl)-8-hydroxyquinazolin-4(3H)-one]
20 nM | O=c1[nH]cnc2c(O)c(F)c(-c3ccc(F)cc3)cc12 [Example 201, 7-Fluoro-6-(4-fluorophenyl)-8-hydroxyquinazolin-4(3H)-one]
70 nM | Cc1cc(-c2c(Br)cc(O)c3nc[nH]c(=O)c23)ccn1 [Example 105, 6-Bromo-8-hydroxy-5-(2-methylpyridin-4-yl)quinazolin-4(3H)-one]
10 nM | Cc1nc(C)c(-c2cc(O)c3nc[nH]c(=O)c3c2)s1 [Example 178, 6-(2,4-Dimethylthiazol-5-yl)-8-hydroxyquinazolin-4(3H)-one]
810 nM | O=c1[nH]cnc2c(O)ccc(Cl)c12 [Example 143, 5-Chloro-8-hydroxyquinazolin-4(3H)-one]
30 nM | Cc1cc(-c2cc(O)c3nc[nH]c(=O)c3c2)c(C)s1 [Example 165, 6-(2,5-Dimethylthiophen-3-yl)-8-hydroxyquinazolin-4(3H)-one]
10 nM | O=c1[nH]cnc2c(O)c(F)c(-c3ccc(F)cc3)c(-c3ccc(F)cc3)c12 [Example 123, 7-Fluoro-5,6-bis(4-fluorophenyl)-8-hydroxyquinazolin-4(3H)-one]
30 nM | Cc1cnc(-c2cc(O)c3nc[nH]c(=O)c3c2)s1 [Example 72, 8-Hydroxy-6-(5-methylthiazol-2-yl)quinazolin-4(3H)-one]
660 nM | O=C(NCC(F)(F)F)c1cc(O)c2nc[nH]c(=O)c2c1 [Example 5, 8-Hydroxy-4-oxo-N-(2,2,2-trifluoroethyl)-3,4-dihydroquinazoline-6-carboxamide]
30 nM | COC(=O)c1cc(O)c2nc[nH]c(=O)c2c1 [Example 2, Methyl 8-hydroxy-4-oxo-3,4-dihydroquinazoline-6-carboxylate]
250 nM | O=C(c1cccnc1)c1cc(O)c2nc[nH]c(=O)c2c1 [Example 74, 8-Hydroxy-6-nicotinoylquinazolin-4(3H)-one]
1280 nM | CN1CCN(C(=O)c2ccccc2-c2cc(O)c3nc[nH]c(=O)c3c2)CC1 [Example 193, 8-Hydroxy-6-[2-(4-methyl-piperazine-1-carbonyl)-phenyl]-3H-quinazolin-4-one]
30 nM | Cc1ccccc1-c1cc(O)c2nc[nH]c(=O)c2c1 [Example 210, 8-Hydroxy-6-o-tolylquinazolin-4(3H)-one]
20 nM | COCc1cc(C(=O)N(CCN(C(C)C)C(C)C)C(C)C)ccc1-c1cc(O)c2nc[nH]c(=O)c2c1 [Example 106, N-(2-(Diisopropylamino)ethyl)-4-(8-hydroxy-4-oxo-3,4-dihydroquinazolin-6-yl)-N-isopropyl-3-(methoxymethyl)benzamide 2,2,2-trifluoroacetate]
10 nM | O=c1[nH]cnc2c(O)cc(-c3ccc(F)cc3)c(Br)c12 [Example 122, 5-Bromo-6-(4-fluorophenyl)-8-hydroxyquinazolin-4(3H)-one]
10 nM | O=c1[nH]cnc2c(O)cc(-c3ccccc3COCCC3CCN(CC(F)(F)F)CC3)cc12 [Example 118, 8-Hydroxy-6-(2-((2-(1-(2,2,2-trifluoroethyl)piperidin-4-yl)ethoxy)methyl)phenyl)quinazolin-4(3H)-one 2,2,2-trifluoroacetate]
100 nM | Cc1ccc(/C=C/c2cc(O)c3nc[nH]c(=O)c3c2)cc1 [Example 21, (E)-8-Hydroxy-6-(4-methylstyryl)quinazolin-4(3H)-one]
3210 nM | Cc1c(Br)cc2c(=O)[nH]cnc2c1O [Example 136, 6-Bromo-8-hydroxy-7-methylquinazolin-4(3H)-one]
70 nM | O=c1[nH]cnc2c(O)cc(-c3ccccc3OC(F)(F)F)cc12 [Example 145, 8-Hydroxy-6-(2-trifluoromethoxy-phenyl)-3H-quinazolin-4-one]

Same assay, conditions: IC50, COMT-fluorescence assay, rec. human COMT 25 nM, 4-Nitrocatechol-Alexa488 200 nM, SAM 500 nM

IC50 | SMILES
20 nM | O=c1[nH]cnc2c(O)cc(-c3ccc4c(c3)OCC4)cc12 [Example 25, 6-(2,3-Dihydrobenzofuran-6-yl)-8-hydroxyquinazolin-4(3H)-one]
20 nM | O=c1[nH]cnc2c(O)cc(-c3cccc(N4CCOCC4)c3)cc12 [Example 146, 8-Hydroxy-6-(3-morpholinophenyl)quinazolin-4(3H)-one]
40 nM | O=c1[nH]cnc2c(O)cc(-c3ccc(Cl)cc3)cc12 [Example 131, 6-(4-Chlorophenyl)-8-hydroxyquinazolin-4(3H)-one]
30 nM | O=c1[nH]cnc2c(O)cc(-c3cc(Cl)ccc3Cl)cc12 [Example 37, 6-(2,5-Dichlorophenyl)-8-hydroxyquinazolin-4(3H)-one]
310 nM | CNCCc1ccccc1-c1cc(O)c2nc[nH]c(=O)c2c1 [Example 232, 8-Hydroxy-6-(2-(2-(methylamino)ethyl)phenyl)quinazolin-4(3H)-one]
20 nM | COCc1cccc(-c2cc(O)c3nc[nH]c(=O)c3c2)c1 [Example 71, 8-Hydroxy-6-(3-(methoxymethyl)phenyl)quinazolin-4(3H)-one]
